# Assay results taken from patent EP4813403A1, “USE OF GLP-1R/GIPR DOUBLE-TARGET AGONIST IN PREPARING ANIMAL DRUG” (Hangzhou Zhongmeihuadong Pharmaceutical Co., Ltd., priority 2023, dated 2025).
# Like-named read-outs stand apart in the source and are kept apart here.
# Tests used:
# [1] = biological target: T1, human GIP Receptor (Homo sapiens, UniProt P48546); test: In vitro binding activity to human GIP receptor ([125I]GIP displacement, crude cell membranes); settings: ratio of the Ki value of the endogenous ligand to the Ki value of the test compound; larger ratio = stronger binding
# T1 construct: expressed in transfected cells
# T1 sequence (P48546 22-466): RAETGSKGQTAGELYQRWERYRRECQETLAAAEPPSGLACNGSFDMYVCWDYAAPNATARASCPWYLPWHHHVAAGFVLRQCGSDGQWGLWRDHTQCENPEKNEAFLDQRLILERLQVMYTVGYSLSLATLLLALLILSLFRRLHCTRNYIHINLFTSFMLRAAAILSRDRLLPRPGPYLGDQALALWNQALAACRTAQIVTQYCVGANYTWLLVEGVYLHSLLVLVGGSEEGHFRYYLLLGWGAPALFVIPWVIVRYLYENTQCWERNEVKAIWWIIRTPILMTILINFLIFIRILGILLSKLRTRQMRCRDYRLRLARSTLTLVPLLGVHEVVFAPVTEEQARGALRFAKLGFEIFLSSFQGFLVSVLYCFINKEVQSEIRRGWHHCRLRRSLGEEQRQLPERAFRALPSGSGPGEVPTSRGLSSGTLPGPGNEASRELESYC
# [2] = test system: db/db mice; test: Multiple administration experiment on db/db mice; assay type: in vivo; settings: for AUC 4-25 day Glu / D28 FBG(Fasting Blood Glucose) / Liver Weight / Serum ALT / Serum TBIL / Serum TG: db/db mice, s.c. every 3 days for 4 weeks, Mean±SEM, 6 mice
# Method: "Minimum effective dose" as disclosed in the present invention refers to the minimum administration dose at which the drug effect is produced.
# "Efficacy dose" as disclosed in the present invention refers to the administration dose at which the drug effect is produced.
# In this study, 7-8 week old male db/db mice were used. The db/db mice were placed in an individual ventilated cage (IVC) facility with a controlled temperature (20-26°C) and humidity (40-70%) and a controlled 12:12 h light-dark cycle. The mice received food and water ad libitum. Blood were sampled at the tail tip, and the base blood glucose was measured by a Roche blood glucose meter. The mice were randomly divided into groups according to the initial blood glucose and initial body weight (n=6/group), and each group had similar body weight and blood glucose.
# The mice were subcutaneously administrated every 3 days for 4 weeks. Subcutaneous administration was conducted on days 1, 4, 7, 10, 13, 16, 19, 22 and 25. Random blood glucose was recorded every 3 days throughout the study. On day 28, the fasting blood glucose was measured. Then the blood was collected by orbital blood sampling. After the orbital blood sampling, the animals were sacrificed, and the liver was taken and weighed. After 1 to 2 hours, the collected blood was centrifuged at 3000 rpm for 10 min to separate the serum. Biochemical indicators such as triglyceride (TG), alanine aminotransferase (ALT), and total bilirubin (TBIL) were determined with a biochemical analyzer. The data results were statistically analyzed using GraphPad Prism8, and the statistical differences among the groups were analyzed following T-Test. Significant differences were identified at p<0.05.
# [3] = Pharmacokinetics in cynomolgus monkeys; settings: cynomolgus monkey, in vivo, cynomolgus monkeys; for half-life: read-out: T1/2 (converted)
# Method: After subcutaneous or intravenous administration to cynomolgus monkeys, plasma was collected and the drug concentration in plasma was determined to illustrate the in vivo pharmacokinetic properties of the compound according to the present invention. […] 70.0 µL of thawed plasma sample was taken. 70 µL of acetonitrile (containing 1 ng/ml of the internal standard) was added to precipitate protein. […] The mixture was vortexed for 5 minutes. 10 µL of the mixture solution was sampled and injected into the LC-MS/MS to determine the drug concentration in plasma. […] Table 9 Average Pharmacokinetic Parameters after Single Subcutaneous Administration to Cynomolgus Monkeys
# [4] = sc, single subcutaneous administration, 25 nmol/kg
# [5] = single intravenous administration, 12.5 nmol/kg
structure (smiles),measurement,setting,value
CC[C@H](C)[C@H](NC(=O)C(C)(C)NC(=O)[C@H](Cc1ccc(O)cc1)NC(=O)[C@H](CC(=O)O)NC(=O)[C@H](CO)NC(=O)[C@@H](NC(=O)C(C)(Cc1ccccc1)NC(=O)[C@@H](NC(=O)CNC(=O)[C@H](CCC(=O)O)NC(=O)C(C)(C)NC(=O)[C@@H](N)Cc1ccc(O)cc1)[C@@H](C)O)[C@@H](C)O)C(=O)NC(C)(C)C(=O)N[C@@H](CC(C)C)C(=O)N[C@@H](CC(=O)O)C(=O)N[C@@H](CCCCN)C(=O)N[C@@H](CCC(N)=O)C(=O)N[C@@H](C)C(=O)N[C@@H](CCC(N)=O)C(=O)N[C@@H](C)C(=O)N[C@@H](CCC(=O)O)C(=O)N[C@@H](Cc1ccccc1)C(=O)N[C@H](C(=O)N[C@@H](CCCCNC(=O)COCCOCCNC(=O)COCCOCCNC(=O)COCCOCCNC(=O)CC[C@H](NC(=O)CCCCCCCCCCCCCCCCCCCCC(=O)O)C(=O)O)C(=O)N[C@@H](Cc1c[nH]c2ccccc12)C(=O)N[C@@H](CC(C)C)C(=O)N[C@@H](CC(C)C)C(=O)N[C@@H](CCCCN)C(=O)NCC(=O)NCC(=O)N1CCC[C@H]1C(=O)N[C@@H](CO)C(=O)N[C@@H](CO)C(=O)NCC(=O)N[C@@H](C)C(=O)N1CCC[C@H]1C(=O)N1CCC[C@H]1C(=O)N1CCC[C@H]1C(=O)N[C@@H](CO)C(=O)N[C@@H](CCCCN)C(N)=O)C(C)C (some centres unmarked) [Compound P016],GIPR Ki ratio,[1],0.11
same,Efficacy Dose,"[2]; db/db mice multiple administrations, dose with blood glucose AUC p<0.05 vs. Vehicle",3 nmol/kg
same,AUC 4-25 day Glu,[2]; 3 nmol/kg,256.38 ± 22 mmol·days/L
same,D28 FBG(Fasting Blood Glucose),[2]; 3 nmol/kg,10.42 ± 1.46 mmol/L
same,Liver Weight,[2]; 3 nmol/kg,2.24 ± 0.1 g
same,Serum ALT,[2]; 3 nmol/kg,137.93±34.59 U/L
same,Serum TBIL,[2]; 3 nmol/kg,0.82 ± 0.13 µmol/L
same,Serum TG,[2]; 3 nmol/kg,1.21 ± 0.04 mmol/L
same,AUC 4-25 day Glu,[2]; 10 nmol/kg,249.25 ± 41.42 mmol·days/L
same,D28 FBG(Fasting Blood Glucose),[2]; 10 nmol/kg,12.5 ± 2.19 mmol/L
same,Liver Weight,[2]; 10 nmol/kg,1.98 ± 0.12 g
same,Serum ALT,[2]; 10 nmol/kg,128.94±16.93 U/L
same,Serum TBIL,[2]; 10 nmol/kg,1.22 ± 0.28 µmol/L
same,Serum TG,[2]; 10 nmol/kg,1.22 ± 0.24 mmol/L
same,AUC 4-25 day Glu,[2]; 30 nmol/kg,163.98 ± 11.57 mmol·days/L
same,D28 FBG(Fasting Blood Glucose),[2]; 30 nmol/kg,6.05 ± 0.41 mmol/L
same,Liver Weight,[2]; 30 nmol/kg,1.78 ± 0.08 g
same,Serum ALT,[2]; 30 nmol/kg,97.7±12.36 U/L
same,Serum TBIL,[2]; 30 nmol/kg,0.73 ± 0.16 µmol/L
same,Serum TG,[2]; 30 nmol/kg,1.2 ± 0.05 mmol/L
same,AUC(0-inf),[3]; [4],323 ± 44.6 µg·h/mL
same,AUC(0-t),[3]; [4],319 ± 41.5 µg·h/mL
same,Cmax,[3]; [4],3000 ± 481 ng/mL
same,half-life,[3]; [4],60.4 ± 12.8 h
same,Tmax,"[3]; sc, single subcutaneous administration, 25 nmol/kg, read-out: Tmax",40 ± 13.9 h
same,AUC(0-inf),[3]; [5],80 ± 21.1 µg·h/mL
same,AUC(0-t),[3]; [5],78.2 ± 20.3 µg·h/mL
same,C0,[3]; [5],1700 ± 335 ng/mL
same,half-life,[3]; [5],59.8 ± 8.95 h
